The target in test [1] is Tyrosine-protein kinase ABL2 (Homo sapiens) (UniProt P42684). Nature of the test: Inhibition of ARG labeling at […] (LMTGDTYTAHAGAKFPIK) in human PBMC at 1 uM.
The target of test [2] is Dual specificity mitogen-activated protein kinase kinase 3 (Homo sapiens) (UniProt P46734). In words: Inhibition of MAP2K3 conserved Lys2 (DVKPSNVLINK) in human PBMC at 1 uM.
For test [3], the target named is Ribosomal protein S6 kinase alpha-5 (Homo sapiens) (UniProt O75582). Nature of the test: Inhibition of MSK1 domain1 conserved Lys2 (DIKLENILLDSNGHVVLTDFGLSK) in human PBMC at 1 uM.
The target in test [4] is Serine/threonine-protein kinase SMG1 (Homo sapiens) (UniProt Q96Q15). Nature of the test: Inhibition of SMG1 ATP binding site (DTVTIHSVGGTITILPTKTKPK) in human PBMC at 1 uM.
Sequence of Serine/threonine-protein kinase SMG1 (Homo sapiens) (Q96Q15 whole entry): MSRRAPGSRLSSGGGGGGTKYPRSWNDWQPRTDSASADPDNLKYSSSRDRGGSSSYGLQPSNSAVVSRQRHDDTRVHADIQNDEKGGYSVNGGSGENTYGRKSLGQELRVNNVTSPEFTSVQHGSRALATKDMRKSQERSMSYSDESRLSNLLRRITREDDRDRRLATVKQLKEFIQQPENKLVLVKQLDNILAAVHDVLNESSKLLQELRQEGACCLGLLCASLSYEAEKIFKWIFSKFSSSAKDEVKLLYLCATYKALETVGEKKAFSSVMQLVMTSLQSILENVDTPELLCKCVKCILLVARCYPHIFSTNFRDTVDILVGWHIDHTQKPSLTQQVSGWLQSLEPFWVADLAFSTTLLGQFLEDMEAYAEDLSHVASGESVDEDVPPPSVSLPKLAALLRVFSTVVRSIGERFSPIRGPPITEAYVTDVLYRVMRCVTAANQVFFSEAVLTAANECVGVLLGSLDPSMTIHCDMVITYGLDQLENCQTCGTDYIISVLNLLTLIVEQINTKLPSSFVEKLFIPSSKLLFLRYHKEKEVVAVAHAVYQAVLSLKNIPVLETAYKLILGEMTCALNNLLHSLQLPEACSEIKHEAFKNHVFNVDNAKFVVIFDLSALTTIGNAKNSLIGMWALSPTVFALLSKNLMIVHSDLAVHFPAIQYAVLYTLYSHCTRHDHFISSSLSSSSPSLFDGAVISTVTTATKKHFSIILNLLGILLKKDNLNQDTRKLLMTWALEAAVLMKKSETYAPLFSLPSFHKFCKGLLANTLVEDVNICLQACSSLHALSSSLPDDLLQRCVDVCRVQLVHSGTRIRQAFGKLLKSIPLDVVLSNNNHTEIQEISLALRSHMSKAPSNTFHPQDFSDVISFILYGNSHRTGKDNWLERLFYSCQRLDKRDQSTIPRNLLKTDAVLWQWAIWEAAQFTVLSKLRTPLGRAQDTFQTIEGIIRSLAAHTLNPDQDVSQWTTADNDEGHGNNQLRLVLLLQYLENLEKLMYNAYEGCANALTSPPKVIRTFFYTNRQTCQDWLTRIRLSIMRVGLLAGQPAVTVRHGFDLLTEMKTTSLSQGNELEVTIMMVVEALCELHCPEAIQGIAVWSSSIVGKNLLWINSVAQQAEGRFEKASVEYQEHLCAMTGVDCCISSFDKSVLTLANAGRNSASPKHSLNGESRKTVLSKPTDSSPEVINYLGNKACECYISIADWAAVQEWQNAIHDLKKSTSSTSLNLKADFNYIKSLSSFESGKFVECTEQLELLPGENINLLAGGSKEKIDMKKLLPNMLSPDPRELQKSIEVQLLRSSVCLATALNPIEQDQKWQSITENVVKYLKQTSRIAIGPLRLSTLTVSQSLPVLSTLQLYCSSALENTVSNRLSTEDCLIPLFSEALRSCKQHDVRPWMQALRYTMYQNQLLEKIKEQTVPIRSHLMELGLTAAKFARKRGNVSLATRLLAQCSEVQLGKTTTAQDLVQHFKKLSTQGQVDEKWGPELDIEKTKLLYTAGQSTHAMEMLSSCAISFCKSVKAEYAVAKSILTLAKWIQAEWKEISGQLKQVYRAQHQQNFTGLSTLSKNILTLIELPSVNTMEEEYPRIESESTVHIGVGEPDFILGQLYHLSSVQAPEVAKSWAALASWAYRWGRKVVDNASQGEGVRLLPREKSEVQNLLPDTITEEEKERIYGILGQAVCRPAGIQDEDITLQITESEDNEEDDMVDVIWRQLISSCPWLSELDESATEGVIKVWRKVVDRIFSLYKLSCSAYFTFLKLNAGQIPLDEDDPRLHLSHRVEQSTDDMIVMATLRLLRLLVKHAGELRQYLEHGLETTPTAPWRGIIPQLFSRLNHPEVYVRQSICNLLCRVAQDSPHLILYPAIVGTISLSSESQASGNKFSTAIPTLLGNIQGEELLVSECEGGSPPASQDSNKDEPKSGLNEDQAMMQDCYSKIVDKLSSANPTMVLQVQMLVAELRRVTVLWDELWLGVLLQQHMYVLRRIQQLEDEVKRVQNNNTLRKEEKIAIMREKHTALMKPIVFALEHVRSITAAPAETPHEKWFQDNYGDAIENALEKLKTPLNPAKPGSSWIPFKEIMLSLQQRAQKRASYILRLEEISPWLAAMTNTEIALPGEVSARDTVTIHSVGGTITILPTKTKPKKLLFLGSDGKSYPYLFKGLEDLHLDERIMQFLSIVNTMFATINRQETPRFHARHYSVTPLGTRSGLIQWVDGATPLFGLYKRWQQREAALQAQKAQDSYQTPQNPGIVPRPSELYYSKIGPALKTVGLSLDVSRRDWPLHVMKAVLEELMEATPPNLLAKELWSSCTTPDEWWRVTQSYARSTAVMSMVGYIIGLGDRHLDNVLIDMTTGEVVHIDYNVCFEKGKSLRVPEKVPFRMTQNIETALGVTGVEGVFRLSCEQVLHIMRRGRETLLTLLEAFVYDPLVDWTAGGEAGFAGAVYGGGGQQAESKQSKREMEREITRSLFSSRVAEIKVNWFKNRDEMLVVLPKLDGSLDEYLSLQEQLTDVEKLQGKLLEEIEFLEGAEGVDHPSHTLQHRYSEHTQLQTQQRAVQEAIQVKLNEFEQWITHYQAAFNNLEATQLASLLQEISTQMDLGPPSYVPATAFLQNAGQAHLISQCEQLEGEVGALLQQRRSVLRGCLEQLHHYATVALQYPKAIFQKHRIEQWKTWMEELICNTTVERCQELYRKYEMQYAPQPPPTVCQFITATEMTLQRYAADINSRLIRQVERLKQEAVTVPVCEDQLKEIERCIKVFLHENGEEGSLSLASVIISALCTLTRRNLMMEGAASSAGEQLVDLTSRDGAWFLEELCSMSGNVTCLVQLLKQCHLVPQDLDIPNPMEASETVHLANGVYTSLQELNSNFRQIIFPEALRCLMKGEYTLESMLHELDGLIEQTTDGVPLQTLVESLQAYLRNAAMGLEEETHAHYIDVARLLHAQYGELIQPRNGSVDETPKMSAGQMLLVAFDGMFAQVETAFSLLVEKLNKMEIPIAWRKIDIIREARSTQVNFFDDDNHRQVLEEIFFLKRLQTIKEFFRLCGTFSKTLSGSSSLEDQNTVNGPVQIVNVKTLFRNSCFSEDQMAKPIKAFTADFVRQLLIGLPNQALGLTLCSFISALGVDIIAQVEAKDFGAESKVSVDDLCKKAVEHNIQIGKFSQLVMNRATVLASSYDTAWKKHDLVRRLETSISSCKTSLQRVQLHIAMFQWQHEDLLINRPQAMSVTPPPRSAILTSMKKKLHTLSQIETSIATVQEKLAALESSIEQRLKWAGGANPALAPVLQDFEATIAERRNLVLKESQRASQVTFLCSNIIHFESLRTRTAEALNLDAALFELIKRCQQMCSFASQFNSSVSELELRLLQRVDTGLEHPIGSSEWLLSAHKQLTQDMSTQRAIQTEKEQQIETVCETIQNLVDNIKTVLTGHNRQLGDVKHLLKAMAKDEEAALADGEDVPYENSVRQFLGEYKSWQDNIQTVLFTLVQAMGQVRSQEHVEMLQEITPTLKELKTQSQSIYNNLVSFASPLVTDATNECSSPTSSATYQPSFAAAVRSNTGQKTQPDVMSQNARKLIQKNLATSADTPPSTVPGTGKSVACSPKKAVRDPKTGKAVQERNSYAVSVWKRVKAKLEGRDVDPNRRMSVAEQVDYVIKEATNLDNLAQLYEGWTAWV
Test [5] deals with Myosin light chain kinase, smooth muscle (Homo sapiens) (UniProt Q15746). In words: Inhibition of smMLCK conserved Lys2 (QGIVHLDLKPENIMCVNK) in human PBMC at 1 uM.
Test [6] addresses Serine/threonine-protein kinase/endoribonuclease IRE1 (Homo sapiens) (UniProt O75460). In words: Inhibition of IRE1 conserved Lys2 (DLKPHNILISMPNAHGK) in human PBMC at 0.1 uM.
Test [7] deals with Mitogen-activated protein kinase 8 (Homo sapiens) (UniProt P45983). In words: Inhibition of JNK1 conserved Lys2 (DLKPSNIVVK) in human PBMC at 0.1 uM.
For test [8], the target named is Kinase suppressor of Ras 2 (Homo sapiens) (UniProt Q6VAB6). Nature of the test: Inhibition of KSR2 activation Loop (SKNVFYDNGK) in human PBMC at 0.1 uM.
The target of test [9] is T1, Mitogen-activated protein kinase kinase kinase 5 (Homo sapiens) (UniProt Q99683).
T1 sequence (whole entry): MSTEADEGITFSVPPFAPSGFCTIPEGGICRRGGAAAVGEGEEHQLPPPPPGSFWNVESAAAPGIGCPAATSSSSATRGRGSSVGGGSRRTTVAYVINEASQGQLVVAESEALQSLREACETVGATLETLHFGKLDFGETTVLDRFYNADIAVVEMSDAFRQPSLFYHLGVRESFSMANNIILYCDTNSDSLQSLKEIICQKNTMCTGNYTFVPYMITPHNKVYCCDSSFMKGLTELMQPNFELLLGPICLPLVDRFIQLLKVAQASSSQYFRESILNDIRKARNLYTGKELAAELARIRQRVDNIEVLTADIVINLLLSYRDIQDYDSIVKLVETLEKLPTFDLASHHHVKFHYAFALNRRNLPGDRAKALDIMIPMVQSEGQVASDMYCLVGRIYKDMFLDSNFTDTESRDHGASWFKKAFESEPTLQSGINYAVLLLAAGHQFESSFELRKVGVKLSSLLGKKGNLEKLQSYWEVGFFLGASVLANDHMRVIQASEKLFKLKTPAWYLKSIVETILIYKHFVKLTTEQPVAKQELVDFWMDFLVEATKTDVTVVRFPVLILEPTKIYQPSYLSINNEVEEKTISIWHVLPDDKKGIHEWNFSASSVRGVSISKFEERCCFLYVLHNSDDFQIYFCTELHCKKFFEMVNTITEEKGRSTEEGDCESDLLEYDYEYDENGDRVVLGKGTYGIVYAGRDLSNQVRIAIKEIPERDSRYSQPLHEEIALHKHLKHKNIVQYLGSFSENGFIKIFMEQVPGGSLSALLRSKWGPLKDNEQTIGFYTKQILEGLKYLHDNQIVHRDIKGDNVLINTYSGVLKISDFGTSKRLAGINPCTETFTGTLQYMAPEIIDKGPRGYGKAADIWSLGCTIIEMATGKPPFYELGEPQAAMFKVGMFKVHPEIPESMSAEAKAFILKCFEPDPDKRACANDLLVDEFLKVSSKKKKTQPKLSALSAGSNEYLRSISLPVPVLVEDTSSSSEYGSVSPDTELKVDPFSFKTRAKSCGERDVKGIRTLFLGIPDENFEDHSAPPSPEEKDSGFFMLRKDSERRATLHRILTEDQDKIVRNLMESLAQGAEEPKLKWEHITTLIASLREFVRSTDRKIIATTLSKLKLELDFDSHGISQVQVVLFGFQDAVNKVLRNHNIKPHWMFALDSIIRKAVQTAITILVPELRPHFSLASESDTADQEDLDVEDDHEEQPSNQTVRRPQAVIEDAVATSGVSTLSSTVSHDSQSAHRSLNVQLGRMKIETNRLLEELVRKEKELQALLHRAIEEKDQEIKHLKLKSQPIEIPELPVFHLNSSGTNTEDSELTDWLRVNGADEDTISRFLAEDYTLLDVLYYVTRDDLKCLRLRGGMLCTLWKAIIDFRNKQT
Nature of the test: Inhibition of MAP3K5 conserved Lys1 (IAIKEIPER) in human PBMC at 0.1 uM.

A further test is filed under the species Homo sapiens. Nature of the test: Inhibition of p70S6K conserved Lys2 (DLKPENIMLNHQGHVK) in human PBMC at 0.1 uM.
For test [10], the target named is Phosphatidylinositol 3-kinase catalytic subunit type 3 (Homo sapiens) (UniProt Q8NEB9). In words: Inhibition of PIK3C3 ATP binding site (TEDGGKYPVIFKHGDDLR) in human PBMC at 0.1 uM.
Test [11] has as its target Serine/threonine-protein kinase PLK1 (Homo sapiens) (UniProt P53350). Nature of the test: Inhibition of PLK1 conserved Lys1 (CFEISDADTKEVFAGKIVPK) in human PBMC at 0.1 uM.
In test [12] the target is Serine/threonine-protein kinase tousled-like 1 (Homo sapiens) (UniProt Q9UKI8). In words: Inhibition of TLK1 conserved Lys2 (YLNEIKPPIIHYDLKPGNILLVDGTACGEIK) in human PBMC at 0.1 uM.
Test [13] addresses T2, Serine/threonine-protein kinase ULK3 (Homo sapiens) (UniProt Q6PHR2).
T2 sequence (whole entry): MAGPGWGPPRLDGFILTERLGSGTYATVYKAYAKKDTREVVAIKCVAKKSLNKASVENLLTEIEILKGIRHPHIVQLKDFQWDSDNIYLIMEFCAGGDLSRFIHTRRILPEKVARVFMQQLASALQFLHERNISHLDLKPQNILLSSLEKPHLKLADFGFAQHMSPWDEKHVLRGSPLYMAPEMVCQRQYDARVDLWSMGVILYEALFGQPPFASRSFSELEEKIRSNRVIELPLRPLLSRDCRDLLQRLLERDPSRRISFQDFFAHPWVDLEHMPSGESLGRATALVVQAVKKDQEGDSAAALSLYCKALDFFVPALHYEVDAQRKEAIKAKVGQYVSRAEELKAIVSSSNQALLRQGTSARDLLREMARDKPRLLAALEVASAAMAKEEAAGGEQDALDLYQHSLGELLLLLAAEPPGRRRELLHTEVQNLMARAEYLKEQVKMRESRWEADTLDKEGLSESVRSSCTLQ
In words: Inhibition of ULK3 conserved Lys1 (EVVAIKCVAK) in human PBMC at 0.1 uM.

Consider 1 compound from ChEMBL document CHEMBL4043168, “The design and SAR of a novel series of 2-aminopyridine based LRRK2 inhibitors” (Bioorg Med Chem Lett, 2017).

The term inhibition denotes the drop in the measured response relative to a control, in per cent.

Sequence of Serine/threonine-protein kinase/endoribonuclease IRE1 (Homo sapiens) (O75460 19-977 limits assumed): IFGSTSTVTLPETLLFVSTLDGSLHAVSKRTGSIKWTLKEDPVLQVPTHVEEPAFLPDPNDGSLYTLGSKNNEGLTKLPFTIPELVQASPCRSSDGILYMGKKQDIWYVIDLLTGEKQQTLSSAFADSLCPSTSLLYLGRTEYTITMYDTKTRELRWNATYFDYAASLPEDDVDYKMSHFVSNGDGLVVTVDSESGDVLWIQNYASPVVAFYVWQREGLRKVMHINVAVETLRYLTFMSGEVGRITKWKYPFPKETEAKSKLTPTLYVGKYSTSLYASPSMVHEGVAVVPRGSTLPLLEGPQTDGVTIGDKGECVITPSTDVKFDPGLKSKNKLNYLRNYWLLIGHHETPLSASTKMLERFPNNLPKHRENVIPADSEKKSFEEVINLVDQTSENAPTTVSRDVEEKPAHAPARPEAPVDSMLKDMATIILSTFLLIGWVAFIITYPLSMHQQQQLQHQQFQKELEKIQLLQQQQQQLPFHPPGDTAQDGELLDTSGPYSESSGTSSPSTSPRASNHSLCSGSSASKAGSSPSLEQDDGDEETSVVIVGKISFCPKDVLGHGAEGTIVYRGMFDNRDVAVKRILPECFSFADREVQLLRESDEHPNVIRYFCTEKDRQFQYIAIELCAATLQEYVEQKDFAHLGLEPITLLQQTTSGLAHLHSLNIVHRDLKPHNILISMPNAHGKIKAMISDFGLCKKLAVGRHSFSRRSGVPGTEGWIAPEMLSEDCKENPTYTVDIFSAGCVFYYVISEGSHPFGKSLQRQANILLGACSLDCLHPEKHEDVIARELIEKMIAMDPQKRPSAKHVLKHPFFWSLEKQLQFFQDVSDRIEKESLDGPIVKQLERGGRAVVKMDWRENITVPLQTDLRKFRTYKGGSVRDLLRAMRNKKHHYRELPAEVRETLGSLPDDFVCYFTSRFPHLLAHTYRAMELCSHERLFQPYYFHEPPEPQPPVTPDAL
Sequence of Dual specificity mitogen-activated protein kinase kinase 3 (Homo sapiens) (P46734 whole entry, the tested form may be a part): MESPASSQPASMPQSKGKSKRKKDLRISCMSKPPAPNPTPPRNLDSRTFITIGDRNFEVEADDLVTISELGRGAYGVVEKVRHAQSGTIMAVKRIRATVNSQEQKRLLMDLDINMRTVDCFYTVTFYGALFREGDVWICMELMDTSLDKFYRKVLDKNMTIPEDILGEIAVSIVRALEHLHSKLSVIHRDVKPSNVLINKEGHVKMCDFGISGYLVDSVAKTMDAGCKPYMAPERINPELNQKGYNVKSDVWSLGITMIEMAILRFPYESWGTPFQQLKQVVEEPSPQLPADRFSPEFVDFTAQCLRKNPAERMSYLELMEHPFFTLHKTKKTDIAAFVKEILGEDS

For the compound `CC(C)n1cc(-c2cc(-c3ccc(CN4CCOCC4)cc3)cnc2N)nn1`, the inhibition is 34.8% in test [1]; -9.2% in [2]; 9.8% in test [3]; -8.2% in [4]; 3.2% in test [5]; 22.1% in test [6]. Also, the inhibition is 25.1% in test [7]; 20.4% in test [8]; -0.5% in test [9]; 25.3% in the test filed under Homo sapiens; 14.1% in test [10]; 24.7% in test [11]. Further, the inhibition is -3.1% in test [12] and 20.3% in [13].
